# Test results taken from patent publication US20040018500A1, “Methods and systems for analyzing complex biological systems” (priority 2001, published 2004).
# “Also recorded” adds a separate entry of the source.
# Legend:
# [1] = test system: Arabidopsis thaliana plants; test: SOA1 phenotypic analysis of herbicide-treated Arabidopsis plants; assay type: in vivo; conditions: for leafCurling (Dev.) / leafTwisting (Dev.) / leafWidth (Dev.) / matureLeafAnthocyanins (Dev.) / matureLeafChlorosis (Dev.) / matureLeafNecrosis (Dev.) / newLeafAnthocyanins (Dev.) / newLeafChlorosis (Dev.) / newLeafNecrosis (Dev.) / pointedLeaves (Dev.): numeric value standardized to mock treated tissues; for tMic (Dev.): score for time to full symptoms at minimum inhibitory concentration; for Symptom Class: three-week-old Arabidopsis treated with herbicide, phenotypes shown in FIG. 12; for characteristic symptoms (phenotypic analysis): herbicide-treated Arabidopsis
# Arabidopsis thaliana [2] = test: MOA1 gene expression profiling (22,000 gene array) of sprayed Arabidopsis; conditions: for extent of gene expression perturbation compared to the other treatments: 1 hr; for No. of Lethal Genes Altered: regulated genes (1 hr) found in list of genes essential for plant growth and development
# [3] = test system: Saccharomyces cerevisiae wild type strain BY4743; test: AF1 metabolite analysis (GC-MS, LC-MS) of yeast treated with antifungal drugs; assay type: cell-based
# Magnaporthe grisea = assay type: cell-based
# Arabidopsis thaliana [4] = test: MOA1 biochemical (metabolite) profiling by LC-MS and GC-MS of sprayed Arabidopsis; conditions: for Number of Metabolites Changed: (unknown #) / Number of Metabolites Changed: Total #: 1 hr; for commonly regulated (putative stress-related) metabolites: MOA1, 20 minutes and 1 hour after spraying
# Arabidopsis plants = conditions: nitrate addition to N-starved Arabidopsis; cited from earlier work
compound,measurement,setting,value
"O=C(O)COc1ccc(Cl)cc1Cl [2,4-D]",leafCurling (Dev.),[1],1
same,leafTwisting (Dev.),[1],2
same,leafWidth (Dev.),[1],−1
same,matureLeafAnthocyanins (Dev.),[1],1
same,matureLeafChlorosis (Dev.),[1],2
same,matureLeafNecrosis (Dev.),[1],0
same,newLeafAnthocyanins (Dev.),[1],0
same,newLeafChlorosis (Dev.),[1],1
same,newLeafNecrosis (Dev.),[1],0
same,pointedLeaves (Dev.),[1],0
same,tMic (Dev.),[1],2
same,Symptom Class,[1],5
O=C(O)c1cc(Oc2ccc(C(F)(F)F)cc2Cl)ccc1[N+](=O)[O-] [Acifluorfen],characteristic symptoms (phenotypic analysis),[1],Necrotic leaf flecks
same,Symptom Class,[1],6
COC(=O)NS(=O)(=O)c1ccc(N)cc1 [Asulam],extent of gene expression perturbation compared to the other treatments,Arabidopsis thaliana [2],fewest gene expression perturbations
same,No. of Lethal Genes Altered,Arabidopsis thaliana [2],5
CCNc1nc(Cl)nc(NC(C)C)n1 [Atrazine],characteristic symptoms (phenotypic analysis),[1],rapid and widespread leaf necrosis
same,Symptom Class,[1],7
O=C(O)Cn1c(=O)sc2cccc(Cl)c21 [Benazolin],Symptom Class,[1],5
CC(C)N1C(=O)c2ccccc2NS1(=O)=O [Bentazon],characteristic symptoms (phenotypic analysis),[1],rapid and widespread leaf necrosis
same,Symptom Class,[1],7
COC(=O)c1cc(Oc2ccc(Cl)cc2Cl)ccc1[N+](=O)[O-] [Bifenox],characteristic symptoms (phenotypic analysis),[1],Necrotic leaf flecks
same,Symptom Class,[1],6
COc1nc(C)nc(NC(=O)NS(=O)(=O)c2ccccc2Cl)n1 [Chlorsulfuron],characteristic symptoms (phenotypic analysis),[1],anthocyanin accumulation in the older leaves accompanied by chlorosis of the newly emerging leaves
same,Symptom Class,[1],4
same,No. of Lethal Genes Altered,Arabidopsis thaliana [2],8
COc1c(Cl)ccc(Cl)c1C(=O)O [Dicamba],Symptom Class,[1],5
c1cc[n+]2c(c1)-c1cccc[n+]1CC2 [Diquat],characteristic symptoms (phenotypic analysis),[1],rapid and widespread leaf necrosis
same,leafCurling (Dev.),[1],2
same,leafTwisting (Dev.),[1],0
same,leafWidth (Dev.),[1],−2
same,matureLeafAnthocyanins (Dev.),[1],0
same,matureLeafChlorosis (Dev.),[1],1
same,matureLeafNecrosis (Dev.),[1],4
same,newLeafAnthocyanins (Dev.),[1],0
same,newLeafChlorosis (Dev.),[1],1
same,newLeafNecrosis (Dev.),[1],4
same,pointedLeaves (Dev.),[1],1
same,tMic (Dev.),[1],2
same,Symptom Class,[1],7
CN(C)C(=O)Nc1ccc(Cl)c(Cl)c1 [Diuron],characteristic symptoms (phenotypic analysis),[1],rapid and widespread leaf necrosis
same,leafCurling (Dev.),[1],1
same,leafTwisting (Dev.),[1],0
same,leafWidth (Dev.),[1],−2
same,matureLeafAnthocyanins (Dev.),[1],0
same,matureLeafChlorosis (Dev.),[1],2
same,matureLeafNecrosis (Dev.),[1],4
same,newLeafAnthocyanins (Dev.),[1],newLeafAnthocyanins 0
same,newLeafChlorosis (Dev.),[1],2
same,newLeafNecrosis (Dev.),[1],4
same,pointedLeaves (Dev.),[1],1
same,tMic (Dev.),[1],1
same,Symptom Class,[1],7
OC(Cn1cncn1)(Cn1cncn1)c1ccc(F)cc1F [Fiuconazole],Fold Change of hypoxanthine,[3]; nLC,0.7757
CP(=O)(O)CCC(N)C(=O)O (stereo not shown) [Glufosinate],characteristic symptoms (phenotypic analysis),[1],Chlorosis and leaf curling
same,leafCurling (Dev.),[1],2
same,leafTwisting (Dev.),[1],1
same,leafWidth (Dev.),[1],−2
same,matureLeafAnthocyanins (Dev.),[1],0
same,matureLeafChlorosis (Dev.),[1],3
same,matureLeafNecrosis (Dev.),[1],0
same,newLeafAnthocyanins (Dev.),[1],0
same,newLeafChlorosis (Dev.),[1],3
same,newLeafNecrosis (Dev.),[1],0
same,pointedLeaves (Dev.),[1],1
same,tMic (Dev.),[1],1
same,Symptom Class,[1],3
same,No. of Lethal Genes Altered,Arabidopsis thaliana [2],10
same,nitrogen sources M. grisea can utilize in the presence of the compound,Magnaporthe grisea,only able to utilize glutamine and glutamate as nitrogen sources
same,Number of Metabolites Changed: (unknown #),Arabidopsis thaliana [4]; p < 0.05,4(4)
same,Number of Metabolites Changed: Total #,Arabidopsis thaliana [4]; p < 0.05,4(4)
same,Number of Metabolites Changed: (unknown #),Arabidopsis thaliana [4]; p < 0.11,9(9)
same,Number of Metabolites Changed: Total #,Arabidopsis thaliana [4]; p < 0.11,9(9)
same,commonly regulated (putative stress-related) metabolites,Arabidopsis thaliana [4],"Only a few, if any, stress-related metabolites were observed"
O=C(O)CNCP(=O)(O)O [Glyphosate],characteristic symptoms (phenotypic analysis),[1],anthocyanin accumulation in the older leaves accompanied by chlorosis of the newly emerging leaves
same,leafCurling (Dev.),[1],0
same,leafTwisting (Dev.),[1],0
same,leafWidth (Dev.),[1],0
same,matureLeafAnthocyanins (Dev.),[1],3
same,matureLeafChlorosis (Dev.),[1],1
same,matureLeafNecrosis (Dev.),[1],3
same,newLeafAnthocyanins (Dev.),[1],1
same,newLeafChlorosis (Dev.),[1],2
same,newLeafNecrosis (Dev.),[1],0
same,pointedLeaves (Dev.),[1],1
same,tMic (Dev.),[1],2
same,Symptom Class,[1],4
same,Tier 4: growth of M. grisea with ammonium or glutamine as nitrogen source,Magnaporthe grisea,Little growth defect
same,"growth of M. grisea with nitrate, nitrite, or glutamate as the sole nitrogen source",Magnaporthe grisea,inhibited growth
same,comparison of growth results for Tiers 3 and 4 (Unknown 4 versus glyphosate),Magnaporthe grisea; 250 μg/ml,nearly identical as compared to Unknown 4
same,growth inhibition of M. grisea and its remediation,Magnaporthe grisea; glyphosate at 1.0 mg/ml,remediated by inclusion of aromatic amino acids
same,tyrosine level,"Arabidopsis thaliana [4]; MOA1 metabolite data, one hour, relative to the control",decreased relative to the control after one hour
CC(C)C1(C)N=C(c2ncccc2C(=O)O)NC1=O (stereo not shown) [Imazapyr],characteristic symptoms (phenotypic analysis),[1],anthocyanin accumulation in the older leaves accompanied by chlorosis of the newly emerging leaves
same,Symptom Class,[1],4
same,commonly regulated (putative stress-related) metabolites,Arabidopsis thaliana [4],"Only a few, if any, stress-related metabolites were observed"
CCc1cnc(C2=NC(C)(C(C)C)C(=O)N2)c(C(=O)O)c1 (stereo not shown) [Imazethapyr],characteristic symptoms (phenotypic analysis),[1],anthocyanin accumulation in the older leaves accompanied by chlorosis of the newly emerging leaves
same,Symptom Class,[1],4
CS(=O)(=O)c1cc(C(F)(F)F)ccc1C(=O)c1cnoc1C1CC1 [Isoxaflutole],No. of Lethal Genes Altered,Arabidopsis thaliana [2],15
same,Alpha-tocopherol levels,"Arabidopsis thaliana [4]; MOA1 metabolite data, early time points",not significantly changed relative to the control
same,tyrosine and phenylalanine levels,"Arabidopsis thaliana [4]; MOA1 metabolite data, relative to the control",up-regulated relative to the control; also recorded: began to accumulate relative to the control after one hour
CCc1cccc(C)c1N(C(=O)CCl)C(C)COC (stereo not shown) [Metolachlor],Symptom Class,[1],7
CSc1nnc(C(C)(C)C)c(=O)n1N [Metribuzin],characteristic symptoms (phenotypic analysis),[1],rapid and widespread leaf necrosis
same,Symptom Class,[1],7
O=C(O)c1ccccc1C(=O)Nc1cccc2ccccc12 [Naptalam],extent of gene expression perturbation compared to the other treatments,Arabidopsis thaliana [2],fewest gene expression perturbations
same,No. of Lethal Genes Altered,Arabidopsis thaliana [2],3
"O=[N+]([O-])O [Nitrate, nitrate]",Nitrate Regulation of Glutamate synthetase,Arabidopsis plants,↑
same,Nitrate Regulation of Glutamine synthetase(2),Arabidopsis plants,↑
same,Nitrate Regulation of MADs Box(2),Arabidopsis plants,↓
same,Nitrate Regulation of MYB transcription factor,Arabidopsis plants,↑
same,Nitrate Regulation of Malate Dehydrogenase,Arabidopsis plants,↑
same,Nitrate Regulation of Nitrate transporter,Arabidopsis plants,↑
same,Nitrate Regulation of Phosphate transporter,Arabidopsis plants,↑
same,Nitrate Regulation of Transaldolase,Arabidopsis plants,↑
same,Nitrate Regulation of Transketolase,Arabidopsis plants,↑
"CNc1cnn(-c2cccc(C(F)(F)F)c2)c(=O)c1Cl [Norfluazon, Norflurazon]",commonly regulated (putative stress-related) metabolites,Arabidopsis thaliana [4],"Only a few, if any, stress-related metabolites were observed"
C[n+]1ccc(-c2cc[n+](C)cc2)cc1 [Paraquat],characteristic symptoms (phenotypic analysis),[1],rapid and widespread leaf necrosis
same,leafCurling (Dev.),[1],2
same,leafTwisting (Dev.),[1],0
same,leafWidth (Dev.),[1],−1
same,matureLeafAnthocyanins (Dev.),[1],0
same,matureLeafChlorosis (Dev.),[1],1
same,matureLeafNecrosis (Dev.),[1],4
same,newLeafAnthocyanins (Dev.),[1],0
same,newLeafChlorosis (Dev.),[1],1
same,newLeafNecrosis (Dev.),[1],4
same,pointedLeaves (Dev.),[1],1
same,tMic (Dev.),[1],2
same,Symptom Class,[1],7
CC[C@@H]([C@H](C)O)n1ncn(-c2ccc(N3CCN(c4ccc(OC[C@@H]5CO[C@@](Cn6cncn6)(c6ccc(F)cc6F)C5)cc4)CC3)cc2)c1=O [Posaconazoie],Fold Change luteolin,[3]; platform LC,0
CC[C@@H]([C@H](C)O)n1ncn(-c2ccc(N3CCN(c4ccc(OC[C@@H]5CO[C@@](Cn6cncn6)(c6ccc(F)cc6F)C5)cc4)CC3)cc2)c1=O [Posaconazote],Fold Change of porphobilinogen,"[3]; platform nLC, p-Value 1",0
